# What was measured:
# [1] = system: antral portion of the stomach; experiment: Gastrointestinal contractility: distance between transducing crystals on the antral stomach; format: in vivo, Sprague-Dawley rats
# Text: Two male Sprague-Dawley rats, approximately 12 weeks old (Harlan, Indianapolis, Ind.) were anesthetized with urethane and their stomachs were exposed through a small abdominal incision. Two 2.4 mm transducing crystals (Sonometrics, Ontario, Canada) were placed on the antral portion of the stomach such that circular contractions could be monitored as a change in the distance between the two crystals. The crystals were attached with VETBOND TISSUE ADHESIVE (3M, St. Paul, Minn.). […] The amplitude of the NE-induced decrease was approximately 50% of the acetylcholine-induced increase in distance. Both responses were transient. A negative control of […] of phosphate buffer solution (PBS) applied topically between the crystals had no effect. A 14 amino acid zsig33 peptide (zsig33-1, as shown in Example 4) was dissolved in PBS and […] was applied topically for a final concentration of 1 μg, 10 μg or 100 μg.
# [2] = system: stomachs of fasted male Sprague-Dawley rats; experiment: Gastric emptying: transit of phenol red through the stomach; format: in vivo; settings: 1 μg applied topically to the stomach 5 minutes after gavage, read 30 minutes after the gavage
# Protocol: The effect of topically applied zsig33 peptide (amino acid 24 to 37 of SEQ ID NO: 2) on the transit of phenol red through the stomachs of fasted male Sprague-Dawley rats (Harlan, Indianapolis, Ind.) was evaluated. The rats (6 animals, 8 weeks old) were fasted 24 hrs prior to being anesthetized with urethane (0.5 ml/100 grams of 25% solution). After anesthetizing, the animals were orally gavaged with 1 ml of Phenol Red solution (50 μg/ml in 2% methylcellulose solution).
# The stomach of each animal was exposed through a small abdominal incision and either 1 μg zsig33 peptide or a 14 amino acid control of a scrambled sequence peptide was applied topically to the stomach five minutes following the gavage. The amount of Phenol Red remaining in the stomach was determined by measuring optical density of the extracted stomach contents 30 minutes after the gavage.
# [3] = system: Balb C male mice; experiment: Binding studies of FITC-labelled zsig33 peptides in situ after tail vein injection; format: in vivo; settings: FITC-labelled peptide, 0.5 mg per mouse by tail vein, 15 minutes circulation, fluorescent microscopy at 495 nm
# Protocol: Ten week old Balb C male mice were anesthetized via intramuscular injection and tested for binding of zsig33 peptides in vivo.
# Two peptides were tested: the first peptide, zsig33-1, (See Example 4) consisted of residues 24 to 37 of SEQ ID NO:2, and the second peptide, zsig33-2, consisted of residues 24 to 41 of SEQ ID NO:2. A single glycine was used as a negative control. Additionally, a “scrambled” negative control consisting of residues the first peptide which had been rearranged (SEQ ID NO:15) was also tested. The peptides and controls were coupled to fluorescein isothiocyantate (FITC, Molecular Probes, Eugene, Oreg.) in the following manner: The peptides, glycine control and FITC were dissolved in 0.1 M sodium bicarbonate at pH 9.0 to a concentration of 2.0 mg/ml for the peptides and glycine control and 5 mg/ml for FITC, avoiding exposure of the FITC to strong light. […] The buffer was changed daily and unbound FITC in the post-dialyzed buffer was measured by HPLC. […] Peptide- or glycine-bound FITC was determined by measuring the absorbance of the dialyzed FITC-bound material at 498 nm and dividing by the extinction coefficient of fluorescein, […]. The molar ratio of fluorescein to peptide (mole FITC/mole peptide) was then determined. […]
# [4] = system: ob/ob mice; experiment: Body weight, food intake and glucose clearance, 14-day oral dosing; format: in vivo; settings: 1 μg/mouse orally twice daily for fourteen days, versus scrambled peptide
# Protocol: Sixteen female ob/ob mice, 8 weeks old, (Jackson Labs, Bar Harbor, Me.) were adapted to a special 4 hour daily feeding schedule for two weeks. The were fed ad libitum from 7:30-11:30 am daily. After two weeks on the feeding schedule, the mice were divided into two groups of 8. One group was given 1.0 μg/mouse of zsig33-1 (14 amino acid peptide) and the other vehicle (a 14 amino acid scrambled sequence peptide) in […] sterile 0.1% BSQA by oral gavage just prior to receiving food, and at the end of the 4 hour feeding period. The mice were […] twice daily for fourteen days, during which time food intake and body weight was measured daily. On day 14, immediately after the second oral gavage of the zsig33-1 peptide, the mice were challenged orally with an 0.5 ml volume of 25% glucose. Retro-orbital bleeds were done to determine serum glucose levels immediately prior to administration of the zsig33-1 peptide or vehicle ([…].), and also at 0, 1, 2, and 4 hours following the glucose challenge.
# [5] = system: ob/ob mice; experiment: Glucose absorption after oral glucose challenge; format: in vivo; settings: 100 μg by oral gavage 30 minutes prior to oral glucose challenge, female ob/ob mice
# Protocol: Eight female ob/ob mice, approximately 6 weeks old (Jackson Labs, Bar Harbor, Me.) were adapted to a 4 hour daily feeding schedule for two weeks. After two weeks on the feeding schedule, the mice were given 100 μg of a zsig33 peptide (zsig33-1, as shown in Example 4) in 100 μl sterile 0.1% BSA by oral gavage, immediately after their eating period (post-prandially). Thirty minutes later, the mice were challenged orally with a 0.5 ml volume of 25% glucose. Retroorbital bleeds were done to determine serum glucose levels. Blood was drawn prior to zsig33 dosing, prior to oral glucose challenge, and at 1, 2, 4, and 20 hours following the glucose challenge.
Molecule,amplitude of the NE-induced decrease relative to the acetylcholine-induced increase in distance ([1]; 10 ml of 1 mM applied topically),"change in distance between the two crystals ([1]; 10 ml of 1 mM applied topically to the stomach, anesthetized rats)",change in crystal distance ([1]; 1 μg peptide in PBS applied topically),"rate and amplitude of the contractions ([1]; 10 μg and 100 μg applied topically, compared with 1 μg)",reduction of the amount of Phenol Red remaining in the stomach compared to a scrambled peptide [2],"fluorescence in duodenum, jejunum and kidney compared to the glycine and scrambled controls [3]",daily body weight [4],daily food intake [4],post-prandial glucose absorption (serum glucose) [5]
"NC[C@H](O)c1ccc(O)c(O)c1 [norepinephrine, reference compound]",approximately 50%,reduction in the distance between the two crystals,,,,,,,
zsig33-1: 14 amino acid peptide corresponding to residue 24 (Gly) to residue 37 (Gln) of SEQ ID NO:2 (GSSFLSPEHQRVQQ; listed as Homo sapiens),,,"sustained, rhythmic increase and decrease in crystal distance",enhanced responses in both rate and amplitude,approximately 25%,"increased fluorescence in duodenum, jejunum and in the collecting ducts and convoluted tubules of the kidney",no affect,no affect,enhanced post-prandial glucose absorption
zsig33-2: peptide consisting of residues 24 to 41 of SEQ ID NO:2 (GSSFLSPEHQRVQQRKES; listed as Homo sapiens),,,,,,"increased fluorescence in duodenum, jejunum and in the collecting ducts and convoluted tubules of the kidney",,,

# — patent publication US20040208866A1, “Methods of regulating body weight” (priority 2002, published 2004)
